From publication PMC9977294, “A parasitic fungus employs mutated eIF4A to survive on rocaglate-synthesizing Aglaia plants” (eLife, 2023)
Several values for one entry are separate records, joined by “and”; a condition that tells them apart may be missing. Equal entries are not always repeated.

Legend:
Assay in all cases: Fluorescence polarization assay, FAM-labeled [AG]10 RNA and recombinant eIF4A
Format in all cases: binding
[1] = molecular target: Ophiocordyceps sp. BRM1 eIF4A iso4 WT Gly172; settings: for Fluorescence polarization signal, FAM-labeled [AG]10 RNA, single replicates / Fluorescence polarization signal, FAM-labeled [AG]10 RNA, Mean: ADP + Pi, aglafoline; for Fluorescence polarization signal, FAM-labeled [AG]10 RNA, single replicates: Replicate 1-3; for Fluorescence polarization signal, FAM-labeled [AG]10 RNA, Mean: mean of 3 replicates
Description: (§1) The fluorescence polarization assay was performed as previously described ([Chen et al., 2021]). […] After incubation at room temperature for 30 min, the mixture was transferred to a black 384-well microplate (Corning), and the fluorescence polarization was measured by an Infinite F-200 PRO (Tecan). Under ADP + Pi conditions, 1 mM ADP (Fujifilm Wako Chemicals) and 1 mM Na2HPO4 were used as substitutes for AMP-PNP. The data were fitted to the Hill equation to calculate Kd values and visualized by Igor Pro v8.01 (WaveMetrics).

[2] = molecular target: Ophiocordyceps sp. BRM1 eIF4A iso4 Gly172His; settings: for Fluorescence polarization signal, FAM-labeled [AG]10 RNA, single replicates / Fluorescence polarization signal, FAM-labeled [AG]10 RNA, Mean: ADP + Pi, aglafoline; for Fluorescence polarization signal, FAM-labeled [AG]10 RNA, single replicates: Replicate 1-3; for Fluorescence polarization signal, FAM-labeled [AG]10 RNA, Mean: mean of 3 replicates
Description: as §1

[3] = molecular target: Ophiocordyceps sp. BRM1 eIF4A iso4 Gly172Phe; settings: for Fluorescence polarization, Replicate 1-3 / fluorescence polarization, Mean: [AG]10 RNA, ADP + Pi, Aglafoline
Description: as §1

[4] = [AG]10 10 nM, ADP + Pi (1 mM each), compound 50 µM, read-out: Kd between eIF4A protein and RNA

Structure (SMILES): COC(=O)[C@H]1[C@@H](O)[C@@]2(O)c3c(OC)cc(OC)cc3O[C@@]2(c2ccc(OC)cc2)[C@@H]1c1ccccc1 [Aglafoline, methyl rocaglate]
- Kd [1, 4]: 2600 ± 400 nM
- Fluorescence polarization signal, FAM-labeled [AG]10 RNA, single replicates ([1]; protein concentration 0.01 μM): 0.02459 and 0.04098 and 0.008197
- Fluorescence polarization signal, FAM-labeled [AG]10 RNA, Mean ([1]; protein concentration 0.01 μM): 0.02459
- Fluorescence polarization signal, FAM-labeled [AG]10 RNA, single replicates ([1]; protein concentration 0.05 μM): 0.03279 and -0.008197 and -0.07377
- Fluorescence polarization signal, FAM-labeled [AG]10 RNA, Mean ([1]; protein concentration 0.05 μM): -0.01639
- Fluorescence polarization signal, FAM-labeled [AG]10 RNA, single replicates ([1]; protein concentration 0.075 μM): -0.04918 and -0.03279 and 0.01639
- Fluorescence polarization signal, FAM-labeled [AG]10 RNA, Mean ([1]; protein concentration 0.075 μM): -0.02186
- Fluorescence polarization signal, FAM-labeled [AG]10 RNA, single replicates ([1]; protein concentration 0.1 μM): -0.02459 and -0.04098 and -0.05738
- Fluorescence polarization signal, FAM-labeled [AG]10 RNA, Mean ([1]; protein concentration 0.1 μM): -0.04098
- Fluorescence polarization signal, FAM-labeled [AG]10 RNA, single replicates ([1]; protein concentration 0.5 μM): 0.1557 and -0.1066 and 0.01639
- Fluorescence polarization signal, FAM-labeled [AG]10 RNA, Mean ([1]; protein concentration 0.5 μM): 0.02186
- Fluorescence polarization signal, FAM-labeled [AG]10 RNA, single replicates ([1]; protein concentration 0.75 μM): 0.1967 and 0.03279 and 0.1721
- Fluorescence polarization signal, FAM-labeled [AG]10 RNA, Mean ([1]; protein concentration 0.75 μM): 0.1339
- Fluorescence polarization signal, FAM-labeled [AG]10 RNA, single replicates ([1]; protein concentration 1 μM): 0.09836 and 0.06557 and 0.1557
- Fluorescence polarization signal, FAM-labeled [AG]10 RNA, Mean ([1]; protein concentration 1 μM): 0.1066
- Fluorescence polarization signal, FAM-labeled [AG]10 RNA, single replicates ([1]; protein concentration 5 μM): 0.582 and 0.6803 and 0.5902
- Fluorescence polarization signal, FAM-labeled [AG]10 RNA, Mean ([1]; protein concentration 5 μM): 0.6175
- Fluorescence polarization signal, FAM-labeled [AG]10 RNA, single replicates ([1]; protein concentration 7.5 μM): 0.5902 and 0.6311 and 0.7541
- Fluorescence polarization signal, FAM-labeled [AG]10 RNA, Mean ([1]; protein concentration 7.5 μM): 0.6585
- Fluorescence polarization signal, FAM-labeled [AG]10 RNA, single replicates ([1]; protein concentration 10 μM): 0.6557 and 0.7049 and 0.7131
- Fluorescence polarization signal, FAM-labeled [AG]10 RNA, Mean ([1]; protein concentration 10 μM): 0.6913
- Fluorescence polarization signal, FAM-labeled [AG]10 RNA, single replicates ([1]; protein concentration 25 μM): 0.7787 and 0.8279 and 0.877
- Fluorescence polarization signal, FAM-labeled [AG]10 RNA, Mean ([1]; protein concentration 25 μM): 0.8279
- Kd [2, 4]: 1500 ± 140 nM
- Fluorescence polarization signal, FAM-labeled [AG]10 RNA, single replicates ([2]; protein concentration 0.01 μM): -0.03825 and 0.04372 (2×)
- Fluorescence polarization signal, FAM-labeled [AG]10 RNA, Mean ([2]; protein concentration 0.01 μM): 0.01639
- Fluorescence polarization signal, FAM-labeled [AG]10 RNA, single replicates ([2]; protein concentration 0.05 μM): 0.04372 and 0.1011 and 0.0765
- Fluorescence polarization signal, FAM-labeled [AG]10 RNA, Mean ([2]; protein concentration 0.05 μM): 0.07377
- Fluorescence polarization signal, FAM-labeled [AG]10 RNA, single replicates ([2]; protein concentration 0.075 μM): 0.0847 and 0.06011 and 0.03552
- Fluorescence polarization signal, FAM-labeled [AG]10 RNA, Mean ([2]; protein concentration 0.075 μM): 0.06011
- Fluorescence polarization signal, FAM-labeled [AG]10 RNA, single replicates ([2]; protein concentration 0.1 μM): 0.0847 and 0.06011 and 0.06831
- Fluorescence polarization signal, FAM-labeled [AG]10 RNA, Mean ([2]; protein concentration 0.1 μM): 0.07104
- Fluorescence polarization signal, FAM-labeled [AG]10 RNA, single replicates ([2]; protein concentration 0.5 μM): 0.3388 and 0.429 and 0.3634
- Fluorescence polarization signal, FAM-labeled [AG]10 RNA, Mean ([2]; protein concentration 0.5 μM): 0.377
- Fluorescence polarization signal, FAM-labeled [AG]10 RNA, single replicates ([2]; protein concentration 0.75 μM): 0.5191 and 0.4372 and 0.429
- Fluorescence polarization signal, FAM-labeled [AG]10 RNA, Mean ([2]; protein concentration 0.75 μM): 0.4617
- Fluorescence polarization signal, FAM-labeled [AG]10 RNA, single replicates ([2]; protein concentration 1 μM): 0.5765 and 0.7158 and 0.5847
- Fluorescence polarization signal, FAM-labeled [AG]10 RNA, Mean ([2]; protein concentration 1 μM): 0.6257
- Fluorescence polarization signal, FAM-labeled [AG]10 RNA, single replicates ([2]; protein concentration 5 μM): 1.011 and 0.9208 and 0.888
- Fluorescence polarization signal, FAM-labeled [AG]10 RNA, Mean ([2]; protein concentration 5 μM): 0.9399
- Fluorescence polarization signal, FAM-labeled [AG]10 RNA, single replicates ([2]; protein concentration 7.5 μM): 1.019 and 0.9372 and 0.9699
- Fluorescence polarization signal, FAM-labeled [AG]10 RNA, Mean ([2]; protein concentration 7.5 μM): 0.9754
- Fluorescence polarization signal, FAM-labeled [AG]10 RNA, single replicates ([2]; protein concentration 10 μM): 1.126 and 1.06 and 1.027
- Fluorescence polarization signal, FAM-labeled [AG]10 RNA, Mean ([2]; protein concentration 10 μM): 1.071
- Fluorescence polarization signal, FAM-labeled [AG]10 RNA, single replicates ([2]; protein concentration 25 μM): 1.208 and 1.167 and 1.15
- Fluorescence polarization signal, FAM-labeled [AG]10 RNA, Mean ([2]; protein concentration 25 μM): 1.175
- Fluorescence polarization signal, FAM-labeled [AG]10 RNA, single replicates ([2]; protein concentration 50 μM): 1.191 and 1.306 and 1.257
- Fluorescence polarization signal, FAM-labeled [AG]10 RNA, Mean ([2]; protein concentration 50 μM): 1.251
- Kd [3, 4]: 110 ± 21 nM
- Fluorescence polarization, Replicate 1-3 ([3]; protein concentration 0.01 μM): 0.1148 and 0.008197 and 0.04098
- fluorescence polarization, Mean ([3]; protein concentration 0.01 μM): 0.05464
- Fluorescence polarization, Replicate 1-3 ([3]; protein concentration 0.05 μM): 0.2869 (2×) and 0.3279
- fluorescence polarization, Mean ([3]; protein concentration 0.05 μM): 0.3005
- Fluorescence polarization, Replicate 1-3 ([3]; protein concentration 0.075 μM): 0.3689 and 0.3279 and 0.2869
- fluorescence polarization, Mean ([3]; protein concentration 0.075 μM): 0.3279
- Fluorescence polarization, Replicate 1-3 ([3]; protein concentration 0.1 μM): 0.5164 and 0.3115 and 0.2787
- fluorescence polarization, Mean ([3]; protein concentration 0.1 μM): 0.3689
- Fluorescence polarization, Replicate 1-3 ([3]; protein concentration 0.5 μM): 0.9262 and 0.9426 and 0.8197
- fluorescence polarization, Mean ([3]; protein concentration 0.5 μM): 0.8962
- Fluorescence polarization, Replicate 1-3 ([3]; protein concentration 0.75 μM): 0.9508 and 0.8443 and 0.8934
- fluorescence polarization, Mean ([3]; protein concentration 0.75 μM): 0.8962
- Fluorescence polarization, Replicate 1-3 ([3]; protein concentration 1 μM): 0.7869 and 0.877 and 0.7623
- fluorescence polarization, Mean ([3]; protein concentration 1 μM): 0.8087
- Fluorescence polarization, Replicate 1-3 ([3]; protein concentration 5 μM): 0.9016 and 0.9426 and 0.8852
- fluorescence polarization, Mean ([3]; protein concentration 5 μM): 0.9098
- Fluorescence polarization, Replicate 1-3 ([3]; protein concentration 7.5 μM): 0.8934 and 1.016 and 0.9344
- fluorescence polarization, Mean ([3]; protein concentration 7.5 μM): 0.9481
- Fluorescence polarization, Replicate 1-3 ([3]; protein concentration 10 μM): 1.057 and 0.8934 and 0.877
- fluorescence polarization, Mean ([3]; protein concentration 10 μM): 0.9426
- Fluorescence polarization, Replicate 1-3 ([3]; protein concentration 25 μM): 0.8852 and 1.033 and 1.057
- fluorescence polarization, Mean ([3]; protein concentration 25 μM): 0.9918
